Laboratory results taken from patent US20080166323A1, “Activators of Hexosamine Biosynthesis as Inhibitors of Injury Induced by Ischemia or Hermorrhagic Shock” (UAB RESEARCH FOUNDATION, priority 2004, published 2008).
Counter-ions that a name gives are not always drawn.

Key:
[1] = test system: perfused hearts; assay: calcium paradox in perfused hearts (Langendorff); parameters: species or system rat
Method: The effect of short-term hyperglycemia (2-5 days) on the calcium paradox was explored. The protocol (a 30-minute stabilization after hanging the heart on a Langendorff apparatus, a Ca^2+-free buffer for 10 min, a buffer containing 1.25 mM Ca^2+ buffer for 15 min) was initially applied to perfused hearts from control rats. When calcium was removed from the perfusate, the heart gradually ceased beating (FIG. 2A), although no protein loss from the heart was detected (FIG. 3C). […] The decrease in left ventricular […] pressure (LVDP) and an elevation in end diastolic pressure (EDP), as well as protein loss and blanching signaled the transition to a “stone heart” (Zimmerman, Cardiovasc Res (2000) 45(1):119-121) in hearts from all control animals examined.
Azaserine (AZA), the inhibitor of GFAT and HBP flux (Marshall, et al., J Biol Chem (1991) 266(8):4706-4712), negated the effects of hyperglycemia, restoring sensitivity to the paradox in 3 of 7 hearts (FIG. 2B). […] This decreased somewhat the protection seen with hyperglycemia, but made the reversal seen with azaserine more pronounced (FIGS. 2B and 3).
To confirm the involvement of the HBP in the protection due to hyperglycemia, a complementary series of experiments at a final Ca^2+ concentration of 1.25 mM were performed.
An independent mechanism of increasing metabolites in the HBP is to provide the heart with free fatty acids (Hawkins, et al., J Clin Invest (1997) 99(9):2173-2182). This occurs because of the “glucose-sparing” effect, a rapid block on the entry of glucose into the glycolytic pathway because of an inhibition of phosphofructokinase. […] In addition, SKF96365 (also known as 1-[β-[3-(4-methoxyphenyl)propoxy]-4-methoxyphenethyl]-1H-imidazole, HCl; available from Calbiochem, San Diego, Calif.) as an independent means of blocking the channels responsible for CCE was utilized (Putney, Capacitative Calcium Entry (1997) Austin: Landes Biomedical). This too was at least partially effective in 4 of 6 animals (FIG. 4).

[2] = test system: animal models of ischemia/reperfusion; details: in vivo; cited from earlier work
[3] = test system: hemorrhagic shock; details: in vivo; cited from earlier work
[4] = test system: human; details: in vivo; cited from earlier work
[5] = test system: isolated rat heart; details: administered prior to ischemia or just prior to reperfusion; cited from earlier work
[6] = test system: isolated cardiomyocyte; details: cited from earlier work

CN(N=O)C(=O)N[C@H]1C(O)O[C@H](CO)[C@@H](O)[C@@H]1O (mixture of isomers) [streptozotocin]
hearts demonstrating almost complete protection in the calcium paradox ([1]; hearts from animals made hyperglycemic by STZ treatment (2-5 days), 10 min Ca2+-free, 1.25 mM Ca2+ readdition): 7 of 7

[N-]=[N+]=CC(=O)OC[C@H](N)C(=O)O [Azaserine]
hearts in which sensitivity to the calcium paradox was restored (effects of hyperglycemia negated) ([1]; hearts from STZ hyperglycemic animals treated with azaserine): 3 of 7

O=C(COP(=O)(O)O)[C@@H](O)[C@H](O)[C@H](O)COP(=O)(O)O [FBP, fructose-1,6-bisphosphate]
protection in animal models of ischemia/reperfusion [2]: protective
protection in hemorrhagic shock [3]: protective
outcomes in human studies [4]: improved outcomes

COc1ccc(CCCOC(Cn2ccnc2)c2ccc(OC)cc2)cc1 (stereo not drawn) [SKF96365, 1-[β-[3-(4-methoxyphenyl)propoxy]-4-methoxyphenethyl]-1H-imidazole, HCl]
animals in which treatment was at least partially effective in the calcium paradox ([1]; final Ca2+ 1.25 mM): 4 of 6

NC(=O)CC[C@H](N)C(=O)O [glutamine]
protection in cardiac ischemia [5]: remarkable protection
protection in isolated cardiomyocyte model [6]: protective
